This is an account of results in patent US10272056B2, “Treatment for mitochondrial diseases” (The George Washington University a Congressionally …, priority 2015, dated 2019).

For data set [1], the system named is healthy and MELAS fibroblasts. Nature of the data set: Dose-dependent studies for optimal safe concentrations. It counts as cell-based, human. The conditions noted are these: three days of treatment. An excerpt: Experimental approaches. Five distinct molecular tools were used to investigate mitochondrial biogenesis: 1) the mitochondrial-specific dyes, MitoTracker® Green (MTG) and MitoTracker® Red (MTR); 2) the mito-GFP or mito-dsRed vector to fluorescently label mitochondria; 3) antibodies against mtDNA, COXVα, or SOD2; 4) the fluorescent PicoGreen® dye labeling mtDNA; and 5) quantitative PCR to determine mtDNA copy number.
(§1) Butyrates rescue the mitochondrial mass, morphology, networking, membrane potential, and cellular ATP levels in MELAS fibroblasts. Skin fibroblasts from two MELAS patients and from a healthy subject as a control were used. Dose-dependent analyses of butyrates to determine their best concentrations for eliciting an optimal mitochondrial response without cellular toxicity was performed. Healthy and MELAS fibroblasts were treated with PBS, NaBt (2.5 mM), TBN (1.5 mM), or AN9 (300 μM) for three days before labeling with the MTG dye for live cell confocal analysis.

The conditions of data set [2]: cited from earlier work; for toxicity or side effects on oral administration: TBN 1.5 mM, AN9 300 μM concentrations.
The conditions of data set [3]: cited from earlier work.
Data set [4] relates to MELAS fibroblasts. As to the kind of experiment: Mitochondrial mass, morphology and networking (MTG live cell confocal analysis). It counts as cell-based, human. The conditions noted are these: three-day exposure; NaBt 2.5 mM, TBN 1.5 mM, AN9 300 μM.
Source text: FIG. 17A-17C are images from microscopy and graphs showing that butyrates rescue the mitochondrial phenotype in MELAS fibroblasts. (A) Confocal analysis of healthy and MELAS fibroblasts treated as indicated and labeled with the MTG dye; scale bar=10 (B) Analysis of the mitochondrial mass; n=3 (60 cells per experiment; ^‡p<0.05, unpaired T-test *p<0.05, paired T-test). (C) Analysis of Δψm (^‡p<0.05, unpaired T-test; *p<0.05, paired T-test).
as §1
(§2) Butyrates rescue the mitochondrial mass, morphology, networking, and membrane potential in MELAS fibroblasts. Skin fibroblasts from two MELAS patients and from a healthy subject as a control were used. Dose-dependent analyses of butyrates was performed to determine their best concentrations for eliciting an optimal mitochondrial response without cellular toxicity. Healthy and MELAS fibroblasts were treated with PBS, NaBt (2.5 mM), TBN (1.5 mM), or AN9 (300 μM) for three days before labeling with the MTG dye for live cell confocal analysis.

The subject of data set [5] is MELAS fibroblasts. Nature of the data set: Morphometric analysis of mitochondrial connectivity (Image J). The conditions noted are these: Image J analysis of MTG-labeled fibroblasts. Format: cell-based, human. The method, then: FIG. 18 is a graph showing that butyrate and its derivatives rescue the mitochondrial dynamics and connectivity in MELAS fibroblasts.
as §2

The conditions of data set [6]: human, in vivo; cited from earlier work.
The test system of data set [7] is PC12-ND6 cells. Nature of the data set: Cell death upon chloramphenicol exposure. It counts as cell-based. The note with it: chloramphenicol 0, 15, 30, 60 μM, two days. The source says: (§3) FIG. 14A-14E are images from microscopy showing that pre-treatment of PC12-ND6 cells with NaBt prevents chloramphenicol-mediated decrease of mitochondrial mass. (A) Graph of PC12-ND6 cell death upon exposure to different concentrations of chloramphenicol (Cm). Percent of cell death±SEM (n=250 cells). (B) Quantitative immunoblot analysis of mitochondrial-encoded MT-CO1 protein (green) and nuclear-encoded SDH-A protein (red) in Cm-treated PC12-ND6 cells. (C) Graph of MT-CO1/SDH-A ratio normalized to untreated PC12-ND6 cells. Mean±SEM (n=3; compared to untreated cells *p=0.0052, **p=0.0048, and ***p=0.0034). (D) Confocal micrographs of untreated and Cm-treated PC12-ND6 cells transfected with the vector mito-GFP. Scale bar represents 5 μm. (E) Confocal micrographs of NaBt pre-treated PC12-ND6 cells transfected with the vector mito-GFP and exposed to Cm. Scale bar represents 5 μm.
(§4) The efficacy of chloramphenicol treatment was determined by simultaneously examining the expression levels of the nuclear-encoded succinate dehydrogenase (SDH-A) subunit of Complex II and the mitochondrial-encoded subunit I of Complex IV (MT-COI) using a quantitative immunoblot approach. […] The effect of chloramphenicol on mitochondrial mass by live-cell confocal microscopy using PC12-ND6 cells transfected with the vector mito-GFP was confirmed.

Data set [8] has as its system MT-COI. As to the kind of experiment: Quantitative immunoblot of mitochondrial-encoded MT-COI. It counts as cell-based. The note with it: lowest dose of chloramphenicol.
Source text: as §3, §4
On the technique in general: In western blotting, separated proteins are transferred to a membrane and probed.

The test system of data set [9] is SDH-A. As to the kind of experiment: Quantitative immunoblot of nuclear-encoded SDH-A. Format: cell-based. The conditions noted are these: chloramphenicol 15-60 μM.
Source text: as §3, §4

For data set [10], the system named is E17.5 hippocampal neurons. Nature of the data set: Neuronal stage 3 frequency with chloramphenicol and NaBt. The conditions noted are these: no NaBt. Format: cell-based. The source says: FIG. 16A-16I are images from microscopy and a graph showing that Pre-treatment of E17.5 hippocampal neurons with NaBt protects against chloramphenicol-induced loss of neuronal differentiation. (A-D) Confocal micrographs of E17.5 hippocampal neurons exposed to different concentrations of chloramphenicol at 2DIV and labeled with anti tubulin antibody (red) and nuclear counterstain DAPI (blue) at 3DIV. Scale bar represents 10 μm. (E-H) Confocal micrographs of E17.5 hippocampal neurons treated with NaBt (2 mM) at 1DIV prior to exposure to different concentrations of chloramphenicol at 2DIV and labeled with anti tubulin antibody (red) and nuclear counterstain DAPI (blue) at 3DIV. Scale bar represents 10 μm. (I) Graph of E17.5 β-III^+ hippocampal neurons at the neuronal stage 3. Mean±S.D. (n=250 cells; compared to untreated control *p=0.0001; compared to the corresponding non-NaBt treated sample **p=0.0001; compared to non-NaBt treated cells exposed to Cm at 30 μM‡p=0.007).
The consequences of chloramphenicol exposure on untreated or NaBt-treated E17.5 hippocampal neurons was examined. At 1DIV, dissociated E17.5 hippocampal neurons were switched to differentiation medium in the absence or presence of NaBt (2 mM) for 24 hours before being treated with increasing concentrations of chloramphenicol (0, 15, 30, and 60 μM) for 24 hours. At 3DIV, their phenotypic differentiation was examined by immunocytochemistry using an antibody against the pan-neuronal marker β-III tubulin and quantified the percent of neurons having reached the developmental stage 3 for each experimental condition. As expected, only half of untreated neurons reached stage 3 in the absence of NaBt, while more than 90% of NaBt-treated neurons achieved such degree of differentiation, thereby forming an elaborate neuritic network (FIGS. 16A, E, and I).

Data set [11] deals with PC12-ND6 cells. Nature of the data set: Mitochondrial mass under chloramphenicol (mito-GFP live-cell confocal microscopy). The note with it: chloramphenicol-treated. It counts as cell-based.
Source text: as §3, §4

Data set [12] has as its system PC12-ND6 cells. Nature of the data set: NGF (100 ng/ml)-mediated neurite outgrowth after chloramphenicol. It counts as cell-based. The note with it: chloramphenicol lowest concentration two days, then NGF 100 ng/ml three days. The source says:
FIG. 15A-15C are images from microscopy and a graph showing that Pre-treatment of PC12-ND6 cells negates the inhibitory effect of chloramphenicol on NGF-mediated neuronal differentiation. (A) Confocal micrographs of untreated and Cm-treated PC12-ND6 cells transfected with the vector mito-GFP and exposed to NGF. Scale bar represents 20 μm. (B) Confocal micrographs of NaBt pre-treated PC12-ND6 cells transfected with the vector mito-GFP and exposed to chloramphenicol prior to NGF treatment. Scale bar represents 20 μm. (C) Graph of average total neurite length. Mean±SEM (n=50 cells; compared to untreated PC12-ND6 cells *p=0.0001; compared to non-NaBt-treated PC12-ND6 cells with corresponding Cm concentration **p=0.0001).
Based on the results that NaBt endows PC12-ND6 cells with increased mitochondrial mass through biogenesis, resulting in accelerated neuronal differentiation, it was examined whether exposure to NaBt for three days could confer protection to chloramphenicol-mediated inhibition of neuronal differentiation upon NGF signaling.

For data set [13], the system named is PC12-ND6 cells. The conditions noted are these: dbcAMP alone, PC12 cell system; cited from earlier work.
Data set [14] concerns PC12-ND6 cells. The note with it: TSA 0.66 μM, control HDAC inhibitor; cited from earlier work.
In data set [15] the test system is MELAS fibroblasts. Nature of the data set: Apoptosis induced by hydroxamate HDACis. It counts as cell-based, human.

Read-outs that look alike come from different tables or passages of the source.

Consider `CCCC(=O)OCOC(=O)C(C)(C)C` [AN9, pivaloyloxymethyl butyrate], for which the “optimal safe concentration for eliciting maximal mitochondrial biogenesis without cellular toxicity” value in [1] came out at 300 µM. Moreover, the “toxicity or side effects on oral administration” value in [2] was “without toxicity or side effects”. Besides, the toxicity result in [2] (in vivo) is recorded as “low toxicity”. Also, the “oral pharmacological concentrations relative to NaBt” value in data set [2] (orally administered) is given as 140 times lower than NaBt. Further, the cell membrane permeability result in data set [3] is reported as “increased cell membrane permeability”. In addition, in data set [4], the “mitochondrial mass, morphology, and networking” value is “restored normal mitochondrial mass, morphology, and networking”. Further, in data set [5], the connectivity among mitochondria entry was “rescue the connectivity among mitochondria”.

`CCCC(=O)OCC(COC(=O)CCC)OC(=O)CCC` [TBN, tributyrin]: the “optimal safe concentration for eliciting maximal mitochondrial biogenesis without cellular toxicity” value in data set [1] turned out to be 1500 µM. In addition, in data set [2], the “toxicity or side effects on oral administration” value was “without toxicity or side effects”. The “concentration pharmacologically attainable via oral administration without toxicity or side effects” value in data set [2] (oral) was “up to 2 mM”. In data set [4], the “mitochondrial mass, morphology, and networking” value was “restored normal mitochondrial mass, morphology, and networking”. The connectivity among mitochondria entry in [5] was “rescue the connectivity among mitochondria”.

With `CCCC(CCC)C(=O)O` [Valproic acid], in [6], the effect on seizures entry was “propensity to worsen seizures”.

Take `O=C(N[C@H](CO)[C@H](O)c1ccc([N+](=O)[O-])cc1)C(Cl)Cl` [chloramphenicol]: the cell death result in data set [7] is “negligible cell death”. Moreover, the MT-COI expression entry in [8] is “abolished most of MT-COI expression”. Further, in data set [9], the SDH-A expression levels entry is reported as “none of the chloramphenicol concentrations altered”. The “percent of neurons at stage 3” value in data set [10] (chloramphenicol 15 μM) is “did not alter the percent of neurons at stage 3”. Also, the “decreased transition to stage 3” value in data set [10] (chloramphenicol 30 μM) worked out at 27%; in data set [10] (chloramphenicol 60 μM), 54%. Further, in [11], the mitochondrial mass result is “concentration-dependent decrease of mitochondrial mass”. Also, in data set [12], the “reduction in total neurite length” value worked out at 43%.

Regarding `CCCC(=O)Nc1ncnc2c1ncn2[C@@H]1O[C@@H]2COP(=O)(O)O[C@H]2[C@H]1OC(=O)CCC` [dbcAMP], the neurite length in data set [13] is listed as 15-20 μm.

As for `CC(/C=C/C(=O)NO)=C\[C@@H](C)C(=O)c1ccc(N(C)C)cc1` [trichostatin A], the cell death entry in data set [14] was “mild cell death”. The apoptosis entry in [15] is recorded as “induce apoptosis”.

For the molecule `O=C(CCCCCCC(=O)Nc1ccccc1)NO` [vorinostat], in data set [15], the apoptosis entry is “induce apoptosis”.
